Results published in paper PMC4876444, “Two-Photon Enzymatic Probes Visualizing Sub-cellular/Deep-brain Caspase Activities in Neurodegenerative Models” (Scientific Reports, 2016).

Test system: caspase-3-like activities in STS-induced BV2 and HeLa cells
Assay: TPFM live-cell imaging of STS-induced apoptotic cells
Format: cell-based, mouse, human
Conditions: BV2 (STS 2 μM) and HeLa (STS 1 μM) cells, 4 h STS, probe 24 μM 1 h; not in mock cells
Protocol: Figure 3 Bioimaging of active caspases in live cells. TPFM (λex = 760 nm; λem = 480-550 nm for all AAN-probes) of STS-induced (a) BV2 cells (2 μM, 4 h) and (b) HeLa cells (1 μM, 4 h) using C3RA/C8RA (24 μM, 1 h). Panels 3/6: cells pretreated with Z-VAD(OMe)-FMK (50 μM, 1 h) before STS addition. Panels 1/4: normal cells (DMSO). (c) WB analysis of cleaved caspase-3/-8 from (a,b). (d) TPFM of normal/apoptotic Hela cells imaged by C3RA (24 μM, up) or Ac-DEVD-AMC (40 μM, down; λem = 420–500 nm). Panels 1/3: normal cells. Panels 2/4: STS-induced cells (1 μM, 4 h). Bottom inset: bright field. Top inset: one-photon images (λex = 405 nm). (e) Real-time imaging of caspase-3/-8-like activities in live BV2 cells using 24 μM of C3RA (top)/C8RA (bottom) upon STS (2 μM) stimulation over 2 h. (f) Graphical quantification of RFU extracted from (e). (g) WB analysis of time-dependent caspase-3/-8 cleavage from STS-induced (2 μM) BV2 lysates. (h) WB analysis of time-dependent caspase-3/-7/-8 activation by detection of cleaved caspase-3/-7/-8 from lysates of HeLa cells stimulated with STS (2 μM). (i) RFU from real-time imaging of caspase-3-like activity in live HeLa cells with C3RA/C3RM/C3RE (24 μM, added 1 h before STS) upon STS (2 μM) stimulation. (j) Representative images (t = 60 min) from (i). (k) IF of STS-stimulated (2 μM, 2 h) HeLa cells by anti-caspase-3 (p17) antibody (red) with 3D projections of z-stack images at 90° view and merged with MitoTracker (green, left) or ER tracker (cyan, right). (l) TPFM of caspase-1 activation in primary cortical neurons upon glucose deprivation (GD, 8 h) followed by 1-h incubation with C1RB (24 μM) or C1FS (12 μM; λem = 450–550 nm). Inset: bright field images. NC: neuron cells incubated in normal neurobasal medium. Scale bar = 10 μm in all images.
NIH/3T3, HeLa and BV2 cell lines used in our experiments were cultured in DMEM medium supplemented with 10% (for NIH/3T3 and HeLa) or 5% (for BV2) fetal bovine serum (FBS), with 100.0 mg/L streptomycin and 100 IU/mL penicillin. […]

CC(=O)N[C@@H](CC(=O)O)C(=O)N[C@@H](CCC(=O)O)C(=O)N[C@H](C(=O)N[C@@H](CC(=O)O)C(=O)Nc1ccc2cc(C(C)=O)ccc2c1)C(C)C [C3RA, Ac-DEVD-AAN]
intracellular two-photon fluorescence after STS treatment: strong intracellular fluorescence
